IC50 data for five molecules are collected here from patent US20050101575A1, “Vitamin d3 derivatives and remedies using the same” (priority 2003, published 2005).

For the experiment, the system named is HL-60 cell. The experiment in a line: Vitamin D3 antagonist effect: suppression of HL-60 cell differentiation induced by 1α,25-dihydroxyvitamin D3 (NBT reduction activity). It counts as cell-based. The settings on record: Homo sapiens, HL-60, 96 h, simultaneous treatment with 1α,25-dihydroxyvitamin D3 (1×10^−8 M); compound 1×10^−9 to 1×10^−6 M; 4 days at 37° C.; read-out: IC50 (nM), suppression of NBT reduction activity induction in HL-60 cell. From the text:
(1) HL-60 cell line which had been purchased from a cell bank (Japanese Cancer Research Resource Bank, Cell No: JCRB0085) was used. The cell line was stored as a frozen storage stock to prevent the change of cell characteristics attributable to successive cultivations. Prior to the initiation of experiments, the cells were defrosted and successive culturing was stared. For the experiments, cells whose successive culturing was from one month to about a half year were used. The successive culturing was carried out by centrifugally collecting cells which were in the state of suspension culture, and diluting the collected cell concentrate with a fresh culture medium at a ratio of about 1/100 (1-2×10^4 cells/ml). As the culture medium, an RPMI-1640 medium containing 10% fetal bovine serum was used.
The cells which were under successive culturing in the above process (1) were centrifugally collected, and they were dispersed in a culture medium at the cell concentration of 2×10^4 cells/ml. The dispersion was seeded into a 24-well culture schale at 1 ml/well. […] As the control, ethanol was added at 1 μl/well. After culturing at 37° C. for 4 days in the presence of 5% CO2, the cells were centrifugally collected.
(3) As the parameter of differentiation inducing effect on HL-60 cells, the induction of nitroblue tetrazonium (henceforth, NBT) reduction activity was used. The NBT reduction activity was determined according to the following procedure. That is, centrifugally collected cells were suspended in a fresh culture medium, and subsequently NBT and 12-O-tetradecanoylphorbol-13-acetate were added in such a manner that their concentrations became 0.1% and 100 ng/ml, respectively. After the mixed suspension was incubated at 37° C. for 25 min, a cytospin specimen was prepared. After air drying, it was stained with Kernechtrot, and the ratio of the positive cells of NBT reduction activity was determined under an optical microscope. Percentage ratios of the positive cell ratio in a simultaneous treatment with 1 α,25-dihydroxyvitamin D3 (1×10^−8 M) and a compound of the present invention at various treating concentrations (1×10^−9 to 1×10^−6 M) to that in a single treatment with 1 α,25-dihydroxyvitamin D3 (1×10^−8 M) were plotted against treating concentrations of the compound of the present invention, and the treating concentration of the compound of the present invention at which the percentage ratio became 50% was determined as IC50 value (nM).
In general, IC50 refers to the concentration that inhibits the measured activity by half. With `C=C1CC([C@@H](C)[C@H]2CC[C@H]3/C(=C/C=C4/C[C@@H](O)C[C@H](O)C4=C)CCC[C@]23C)OC1=O` (stereo partly drawn) [Compound No. 11a, 20(R)-(tetrahydro-3-vinylidene-2-furanon-5-yl)-9,10-secopregna-5(Z), 7(E), 10(19)-triene-1(S),3(R)-diol], the IC50 lay in the range of 50 to 150 nM.

For the molecule `C=C1C[C@H](C[C@@H](C)[C@H]2CC[C@H]3/C(=C/C=C4/C[C@H](O)[C@H](C)[C@H](O)C4=C)CCC[C@]23C)OC1=O` [Compound No. 22b, 2(S)-methyl-20(R)-(tetrahydro-3-vinylidene-2-furanon-5-(S)-yl)methyl-9,10-s ecopregna-5(Z),7(E), 10(19)-triene-1(S),3(S)-diol], the IC50 was less than 50 nM.

With `C=C1C[C@H](C[C@@H](C)[C@H]2CC[C@H]3/C(=C/C=C4/C[C@@H](O)[C@H](C)[C@H](O)C4=C)CCC[C@]23C)OC1=O` [Compound No. 22d, 2(S)-methyl-20(R)-(tetrahydro-3-vinylidene-2-furanon-5-(S)-yl)methyl-9,10-s ecopregna-5(Z),7(E),10(19)-triene-1(S),3(R)-diol], the IC50 is less than 50 nM.

Consider `C=C1CC(/C=C/[C@@H](C)[C@H]2CC[C@H]3/C(=C/C=C4/C[C@@H](O)C[C@H](O)C4=C)CCC[C@]23C)OC1=O` (some centres unmarked) [Compound No. 31b], for which the IC50 was less than 50 nM.

As to `C=C1CC(/C=C/[C@@H](C)[C@H]2CC[C@H]3/C(=C/C=C4/C[C@@H](O)[C@H](C)[C@H](O)C4=C)CCC[C@]23C)OC1=O` (stereo partly drawn) [Compound No. 32a, 2(S)-methyl-20(R)-(2-(tetrahydro-3-vinylidene-2-furanon-5-yl)-1(E)-ethenyl)-9,10-secopregna-5(Z), 7(E), 10(19)-triene-1(S), 3(R)-diol], the IC50 is less than 50 nM.
